This test deals with T1, GLP-1R (Homo sapiens, UniProt P43220).
T1 construct: host or cells: CRE-bla CHO-K1
Description: EC20 GLP-1(9-36) PAM cAMP assay: dose response of compound in the presence of fixed concentration of GLP-1(9-36). It counts as cell-based. The conditions noted are these: GLP-1R CRE-bla CHO-K1 cells, compound dose response in presence of fixed concentration of GLP-1(9-36). The procedure:
EC20 GLP-1(9-36) PAM cAMP Assay: Dose Response of Compound in the Presence of Fixed Concentration of GLP-1 (9-36).
GLP-1R CRE-bla CHO-K1 cells cultured in growth medium (DMEM-High glucose, 10% dialyzed FBS, 0.1 mM NEAA, 25 mM Hepes, 100 U/mL penicillin/100 μg/mL streptomycin, 5 μg/mL Blasticidin, 600 μg/mL Hygromycin) were tryspsinized and plated in suspension into 384 well white flat bottom plates at 5000 cells/well in 12 μL assay buffer (Hanks Balanced Salt solution, 10 mM Hepes, 0.1% BSA, pH 7.4). A 5× compound dose response curve (12-point) was generated in assay buffer containing 1.5 mM IBMX, 12.5% DMSO. GLP-1(9-36) was diluted to 4.2 μM in assay buffer containing 1.5 mM IBMX and 12.5% DMSO. The 5× compound dose response was added (3 μL), followed by 0.5 μL of GLP-1(9-36) and cells were incubated for 30 min at 37° C. Direct detection of cAMP was carried out using DiscoveRx HitHunter cAMP kit according to manufacturer's instructions and luminescence was read using a SpectraMax M5 plate reader. Luminescence was converted to total cAMP using a cAMP standard curve and data was analyzed by non-linear regression to determine the EC50 and Emax.
GLP-1(7-36): […]-NH2. GLP-1(9-36): […]-NH2. GLP-1(7-36) was purchased from GenScript. GLP-1(9-36) was purchased from Biopeptide Co., Inc.
Background: Cyclic AMP is a second messenger, typically raised through Gs and lowered through Gi signalling.

In general, EC50 refers to the concentration at which the effect is half-maximal.

T1 sequence (P43220 24-463): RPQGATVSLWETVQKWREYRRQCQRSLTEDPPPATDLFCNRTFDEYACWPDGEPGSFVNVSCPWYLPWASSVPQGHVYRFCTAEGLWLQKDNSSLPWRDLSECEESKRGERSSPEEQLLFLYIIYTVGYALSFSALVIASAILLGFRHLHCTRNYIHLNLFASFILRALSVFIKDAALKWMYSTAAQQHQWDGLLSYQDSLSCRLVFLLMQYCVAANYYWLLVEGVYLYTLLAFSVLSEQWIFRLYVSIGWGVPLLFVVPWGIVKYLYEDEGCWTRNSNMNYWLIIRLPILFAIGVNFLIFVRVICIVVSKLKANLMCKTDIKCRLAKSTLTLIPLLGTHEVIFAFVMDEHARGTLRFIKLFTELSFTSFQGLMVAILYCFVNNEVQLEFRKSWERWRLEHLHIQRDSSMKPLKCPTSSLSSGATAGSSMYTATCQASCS
T1 sequence (P01275 100-127 partner limits assumed): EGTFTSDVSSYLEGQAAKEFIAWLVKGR

Consider `CCCCCCCOc1ccc(-c2cnc(-c3ccc(C[C@H](NC(=O)c4ccc(-c5ccccc5)cc4)C(=O)O)cc3)nc2)cc1` [Compound 91], for which the EC50 lay within 800 to 2500 nM.
For `CCCCCCCOc1ccc(-c2cnc(-c3ccc(C[C@H](NC(=O)c4cccc(N5CCCC5)c4)C(=O)O)cc3)nc2)cc1` [Compound 92], the concentration giving a half-maximal response (EC50) fell in the range of 800 to 2500 nM.
Take `CCCCCCCOc1ccc(-c2cnc(-c3ccc(C[C@H](NC(=O)c4ccc(C(F)(F)F)cc4)C(=O)O)cc3)nc2)cc1` [Compound 93]: the 50% effective concentration (EC50) lay within 5000 to 10000 nM.
Consider `CCCCCCCOc1ccc(-c2cnc(-c3ccc(C[C@H](NC(=O)c4ccc(C(C)C)cc4)C(=O)O)cc3)nc2)cc1` [Compound 94, (S)-3-(4-(5-(4-(heptyloxy)phenyl)pyrimidin-2-yl)phenyl)-2-(4-isopropylbenzamido)propanoic acid], for which the concentration giving a half-maximal response (EC50) lay in the range of 800 to 2500 nM.
In the case of `CCCCCCCOc1ccc(-c2cnc(-c3ccc(C[C@H](NC(=O)c4cccc(C(C)C)c4)C(=O)O)cc3)nc2)cc1` [Compound 95], the EC50 was in the range of 800 to 2500 nM.
As for `CCCCCCCOc1ccc(-c2cnc(-c3ccc(C[C@H](NC(=O)c4ccc(N(C)C)cc4)C(=O)O)cc3)nc2)cc1` [Compound 96], the half-maximal effective concentration (EC50) is 2500 to 5000 nM.
For the compound `CCCCCCCOc1ccc(-c2cnc(-c3ccc(C[C@H](NC(=O)c4ccc(OC(C)C)cc4)C(=O)O)cc3)nc2)cc1` [Compound 97], the 50% effective concentration (EC50) was in the range of 800 to 2500 nM.
For the compound `CCCCCCCOc1ccc(-c2cnc(-c3ccc(C[C@H](NC(=O)c4ccc(C#N)cc4)C(=O)O)cc3)nc2)cc1` [Compound 98], the EC50 lay in the range of 800 to 2500 nM.
On to `CCCCCCCOc1ccc(-c2cnc(-c3ccc(C[C@H](NC(=O)c4ccc(S(C)(=O)=O)cc4)C(=O)O)cc3)nc2)cc1` [Compound 99], for which the EC50 fell in the range of 800 to 2500 nM.
`CCCCCCCOc1ccc(-c2cnc(-c3ccc(C[C@H](NC(=O)c4ccc(CC(C)C)cc4)C(=O)O)cc3)nc2)cc1` [Compound 100]: the 50% effective concentration (EC50) lay in the range of 800 to 2500 nM.
For the compound `CCCCCCCOc1ccc(-c2cnc(-c3ccc(C[C@H](NC(=O)c4ccc(CCC)cc4)C(=O)O)cc3)nc2)cc1` [Compound 101], the concentration giving a half-maximal response (EC50) lay within 800 to 2500 nM.
In the case of `CCCCCCCOc1ccc(-c2cnc(-c3ccc(C[C@H](NC(=O)c4ccc(N)cc4)C(=O)O)cc3)nc2)cc1` [Compound 102], the concentration for a half-maximal effect (EC50) lay within 800 to 2500 nM.
Consider `CCCCCCCOc1ccc(-c2cnc(-c3ccc(C[C@H](NC(=O)c4cccc(N)c4)C(=O)O)cc3)nc2)cc1` [Compound 104], for which the concentration giving a half-maximal response (EC50) lay in the range of 800 to 2500 nM.
As for `CCCCCCCOc1ccc(-c2cnc(-c3ccc(C[C@H](NC(=O)c4cccc(C#N)c4)C(=O)O)cc3)nc2)cc1` [Compound 105], the EC50 was in the range of 5000 to 10000 nM.
To `CCCCCCCOc1ccc(-c2cnc(-c3ccc(C[C@H](NC(=O)c4ccc(C(C)(C)C)cc4OC)C(=O)O)cc3)nc2)cc1` [Compound 106] belongs 800 to 2500 nM; to `CCCCCCCOc1ccc(-c2cnc(-c3ccc(C[C@H](NC(=O)c4ccc(CCCC)cc4)C(=O)O)cc3)nc2)cc1` [Compound 107], 800 to 2500 nM; to `CCCCCCCOc1ccc(-c2cnc(-c3ccc(C[C@H](NC(=O)c4ccc(OCC)cc4)C(=O)O)cc3)nc2)cc1` [Compound 108], 800 to 2500 nM.
`CCCCCCCOc1ccc(-c2cnc(-c3ccc(C[C@H](NC(=O)c4ccc(OC)cc4F)C(=O)O)cc3)nc2)cc1` [Compound 109]: the concentration giving a half-maximal response (EC50) lay in the range of 800 to 2500 nM.
Take `CCCCCCCOc1ccc(-c2cnc(-c3ccc(C[C@H](NC(=O)c4ccc(C)cc4)C(=O)O)cc3)nc2)cc1` [Compound 110]: the half-maximal effective concentration (EC50) was 800 to 2500 nM.
As to `CCCCCCCOc1ccc(-c2cnc(-c3ccc(C[C@H](NC(=O)c4cccc(C)c4)C(=O)O)cc3)nc2)cc1` [Compound 111], the concentration giving a half-maximal response (EC50) lay within 800 to 2500 nM.
For the compound `CCCCCCCOc1ccc(-c2cnc(-c3ccc(C[C@H](NC(=O)c4ccc(CC(C)(C)C)cc4)C(=O)O)cc3)nc2)cc1` [Compound 112], the concentration giving a half-maximal response (EC50) was 800 to 2500 nM.
For `CCCCCCCOc1ccc(-c2cnc(-c3ccc(C[C@H](NC(=O)c4ccc(C(C)=O)cc4)C(=O)O)cc3)nc2)cc1` [Compound 113], the concentration for a half-maximal effect (EC50) is 800 to 2500 nM.
As for `CCCCCCCOc1ccc(-c2cnc(-c3ccc(C[C@H](NC(=O)c4ccc(O)cc4)C(=O)O)cc3)nc2)cc1` [Compound 114, (S)-3-(4-(5-(4-(heptyloxy)phenyl)pyrimidin-2-yl)phenyl)-2-(4-hydroxybenzamido)propanoic acid], the EC50 was in the range of 800 to 2500 nM.
To `CCCCCCCOc1ccc(-c2cnc(-c3ccc(C[C@H](NC(=O)c4ccc(C(N)=O)cc4)C(=O)O)cc3)nc2)cc1` [Compound 115] belongs 800 to 2500 nM.
Take `CCCCCCCOc1ccc(-c2cnc(-c3ccc(C[C@H](NC(=O)c4c(Cl)ccc(F)c4Cl)C(=O)O)cc3)nc2)cc1` [Compound 116]: the EC50 was 800 to 2500 nM.
`CCCCCCCOc1ccc(-c2cnc(-c3ccc(C[C@H](NC(=O)c4ccc(C)c(C)c4)C(=O)O)cc3)nc2)cc1` [Compound 117]: the concentration for a half-maximal effect (EC50) was less than 800 nM.
`CCCCCCCOc1ccc(-c2cnc(-c3ccc(C[C@H](NC(=O)c4ccc(OC)c(C)c4)C(=O)O)cc3)nc2)cc1` [Compound 118]: the EC50 is less than 800 nM.
To `CCCCCCCOc1ccc(-c2cnc(-c3ccc(C[C@H](NC(=O)c4ccccc4C)C(=O)O)cc3)nc2)cc1` [Compound 119] belongs less than 800 nM; to `CCCCCCCOc1ccc(-c2cnc(-c3ccc(C[C@H](NC(=O)c4ccc(OC(F)(F)F)cc4)C(=O)O)cc3)nc2)cc1` [Compound 120], 800 to 2500 nM.
As for `CCCCCCCOc1ccc(-c2cnc(-c3ccc(C[C@H](NC(=O)c4ccc(OCC(C)C)cc4)C(=O)O)cc3)nc2)cc1` [Compound 121], the EC50 lay within 800 to 2500 nM.
`CCCCCCCOc1ccc(-c2cnc(-c3ccc(C[C@H](NC(=O)c4ccc(S(=O)(=O)C(C)C)cc4)C(=O)O)cc3)nc2)cc1` [Compound 122]: the EC50 fell in the range of 800 to 2500 nM.
Take `CCCCCCCOc1ccc(-c2cnc(-c3ccc(C[C@H](NC(=O)c4ccc(S(C)(=O)=O)cc4Cl)C(=O)O)cc3)nc2)cc1` [Compound 123]: the EC50 lay within 800 to 2500 nM.
On to `CCCCCCCOc1ccc(-c2cnc(-c3ccc(C[C@H](NC(=O)c4ccc(NCCCC)cc4)C(=O)O)cc3)nc2)cc1` [Compound 124], for which the EC50 is 800 to 2500 nM.
To `CCCCCCCOc1ccc(-c2cnc(-c3ccc(C[C@H](NC(=O)c4ccc(OC(C)(C)C)cc4)C(=O)O)cc3)nc2)cc1` [Compound 125] belongs 800 to 2500 nM.
On to `CCCCCCCOc1ccc(-c2cnc(-c3ccc(C[C@H](NC(=O)c4ccc(CO)cc4)C(=O)O)cc3)nc2)cc1` [Compound 126], for which the EC50 is 800 to 2500 nM.
Regarding `CCCCCCCOc1ccc(-c2cnc(-c3ccc(C[C@H](NC(=O)c4ccc(S(=O)(=O)CC)cc4)C(=O)O)cc3)nc2)cc1` [Compound 127], the EC50 was in the range of 800 to 2500 nM.
To `CCCCCCCOc1ccc(-c2cnc(-c3ccc(C[C@H](NC(=O)c4ccc(C(=O)N(C)C)cc4)C(=O)O)cc3)nc2)cc1` [Compound 128] belongs 800 to 2500 nM; to `CCCCCCCOc1ccc(-c2cnc(-c3ccc(C[C@H](NC(=O)c4ccc(OCCCC)cc4)C(=O)O)cc3)nc2)cc1` [Compound 129], 800 to 2500 nM.
Consider `CCCCCCCOc1ccc(-c2cnc(-c3ccc(C[C@H](NC(=O)c4cc(C(C)C)no4)C(=O)O)cc3)nc2)cc1` [Compound 130], for which the EC50 was less than 800 nM.
With `CCCCCCCOc1ccc(-c2cnc(-c3ccc(C[C@H](NC(=O)c4cnc(C(C)C)nc4)C(=O)O)cc3)nc2)cc1` [Compound 131], the EC50 lay within 800 to 2500 nM.
To `CCCCCCCOc1ccc(-c2cnc(-c3ccc(C[C@H](NC(=O)c4coc(C(C)C)n4)C(=O)O)cc3)nc2)cc1` [Compound 132] belongs 800 to 2500 nM; to `CCCCCCCOc1ccc(-c2cnc(-c3ccc(C[C@H](NC(=O)c4ccc(C(C)(C)C)o4)C(=O)O)cc3)nc2)cc1` [Compound 133], 800 to 2500 nM.
Take `CCCCCCCOc1ccc(-c2cnc(-c3ccc(C[C@H](NC(=O)c4ccc(CN(C)C)cc4)C(=O)O)cc3)nc2)cc1` [Compound 134]: the EC50 lay within 800 to 2500 nM.
In the case of `CCCCCCCOc1ccc(-c2cnc(-c3ccc(C[C@H](NC(=O)c4cc(C(C)C)on4)C(=O)O)cc3)nc2)cc1` [Compound 135], the 50% effective concentration (EC50) is 800 to 2500 nM.
To `CCCCCCCOc1ccc(-c2cnc(-c3ccc(C[C@H](NC(=O)c4cc(C(C)(C)C)n[nH]4)C(=O)O)cc3)nc2)cc1` [Compound 136] belongs 5000 to 10000 nM; to `CCCCCCCOc1ccc(-c2cnc(-c3ccc(C[C@H](NC(=O)c4ccc(CC)s4)C(=O)O)cc3)nc2)cc1` [Compound 137], 800 to 2500 nM; to `CCCCCCCOc1ccc(-c2cnc(-c3ccc(C[C@H](NC(=O)c4ccc(CC)o4)C(=O)O)cc3)nc2)cc1` [Compound 138], 800 to 2500 nM.
As to `CCCCCCCOc1ccc(-c2cnc(-c3ccc(C[C@H](NC(=O)c4cnn(C(C)C)c4)C(=O)O)cc3)nc2)cc1` [Compound 139], the concentration for a half-maximal effect (EC50) is 800 to 2500 nM.
As for `CCCCCCCOc1ccc(-c2cnc(-c3ccc(C[C@H](NC(=O)c4ccc(C(F)(F)F)s4)C(=O)O)cc3)nc2)cc1` [Compound 140], the concentration for a half-maximal effect (EC50) is 2500 to 5000 nM.
With `CCCCCCCOc1ccc(-c2cnc(-c3ccc(C[C@H](NC(=O)c4nnc(C(C)(C)C)s4)C(=O)O)cc3)nc2)cc1` [Compound 141], the half-maximal effective concentration (EC50) is 800 to 2500 nM.
In the case of `CCCCCCCOc1ccc(-c2cnc(-c3ccc(C[C@H](NC(=O)c4ncc(C(C)(C)C)s4)C(=O)O)cc3)nc2)cc1` [Compound 142], the EC50 is less than 800 nM.

(Values after patent publication US8778923B2, “GLP-1 receptor modulators” (Receptos, Inc., priority 2011, dated 2014).)
